Assay results reported in patent US9974785B2, “Aromatic heterocyclic derivatives and pharmaceutical applications thereof” (SUNSHINE LAKE PHARMA CO., LTD., priority 2014, dated 2018).
pKi: −log10 of the molar value.

Tests used:
human 5-HT6 receptor = human 5-HT6 receptor (Homo sapiens (Human), UniProt P50406); assay: Radioligand binding assay, human 5-HT6 receptor expressed in CHO cell; details: 2 nM [3H]LSD
Experimental: Example A: The Binding Affinities of the Compounds of this Invention to Human 5-HT6 Receptor Expressed in CHO Cell were Evaluated by Radioligand Binding Assay as Follows
32 μg membrane proteins of CHO cell expressing human 5-HT6 receptor, 2 nM of radioactive marker [3H]LSD, a compound of the present invention having different test concentrations, 100 μM 5-HT (5-HT was used to eliminate nonspecific binding sites) and a buffer solution were mixed uniformly. Then the resulting mixture was incubated at 37° C. for 120 min, in which the buffer solution comprised 50 mM Tris-HCl (pH 7.4), 10 mM MgCl2, 0.5 mM EDTA, 10 μM pargyline and 20 mg/L protease inhibitor.
After incubation, the resulting mixture was filtered by a fiberglass filter (GF/B, Packard) in vacuo, and the filter membrane of the fiberglass filter was preimpregnated with 0.3% PEI before the filtering and washed with 50 mM of Tris-HCl for several times after the filtering. After the filter membrane was dried, and the radioactivity of filter membrane was determined by liquid scintillation counting by using a scintillometer (Topcount, Packard). The reference standard was 5-HT, and competitive inhibition curves were plotted based on several inhibition ratios and the corresponding compound concentrations. IC50 values were calculated by non-linear regression analysis using Hill equation curves, and the Ki values were calculated from IC50 by using the ChengPrusoff equation.

[1] = Stability in rat liver microsomes; type: in vitro ADME; details: rat liver microsome 0.5 mg/mL, 1 μM compound, 37° C.; for half-life at 1 μM: pH 7.4; for CLint scaled at 1 μM: pH 7.4, read-out: Intrinsic clearance
Experimental: (§1) Example C: Evaluation of the Stability of the Compounds of the Invention in Rat and Human Liver Microsomes
(§2) The compound of the invention and rat liver microsome or human liver microsome were placed in 0.1 M potassium phosphate buffer (containing 1.0 mM EDTA, pH=7.4) at 37° C., and the mixture was incubated at 37° C. The concentrations of the compound at different incubation time points were determined, and the half-life of the compound was calculated by curve plotted based on the relative contents of the compound and the corresponding incubation times by using GraphPad Prism 5.01. Then the intrinsic clearance was calculated.
(§3) The peak area ratio of sample to internal standard was analyzed by the LC/MS/MS system. The content of the compound at 0 min was 100%, and the relative contents of the compound at different time points were calculated. The half-life of the compound was calculated by curve plotted based on the relative contents of the compound and the corresponding incubation times, and the intrinsic clearance was calculated.

[2] = Stability in human liver microsomes; type: in vitro ADME
Experimental: as §1, §2, §3

human 5-HT6 receptor, sequence (P50406 whole entry): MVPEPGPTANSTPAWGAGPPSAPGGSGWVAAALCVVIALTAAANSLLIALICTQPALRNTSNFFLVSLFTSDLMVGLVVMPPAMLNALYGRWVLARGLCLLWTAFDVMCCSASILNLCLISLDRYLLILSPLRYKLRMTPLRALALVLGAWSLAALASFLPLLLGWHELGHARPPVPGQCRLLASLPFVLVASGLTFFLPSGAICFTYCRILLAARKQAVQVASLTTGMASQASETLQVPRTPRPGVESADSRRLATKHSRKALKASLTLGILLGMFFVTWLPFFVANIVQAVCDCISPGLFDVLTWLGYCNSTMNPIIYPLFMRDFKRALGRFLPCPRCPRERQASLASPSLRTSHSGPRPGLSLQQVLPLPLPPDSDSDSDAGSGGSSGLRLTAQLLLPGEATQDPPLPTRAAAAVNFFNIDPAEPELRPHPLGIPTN

Row | SMILES | pKi (human 5-HT6 receptor) | further results
1 | O=S(=O)(c1cccc(Cl)c1)n1cc(C(F)F)c2c(N3CCNCC3)cc(Br)cc21 [Example 36, 6-bromo-1-((3-chlorophenyl)sulfonyl)-3-(difluoromethyl)-4-(piperazin-1-yl)-1H-indole] | 8.77 | –
2 | O=S(=O)(c1ccccc1F)n1cc(C(F)F)c2c(N3CCNCC3)cc(Cl)cc21 [Example 24, 6-chloro-3-(difluoromethyl)-1-((2-fluorophenyl)sulfonyl)-4-(piperazin-1-yl)-1H-indole] | 8.80 | –
3 | O=S(=O)(c1ccc2ccccc2c1)n1cc(C(F)F)c2c(N3CCNCC3)cccc21 [Example 10, 3-(difluoromethyl)-1-(naphthalen-2-ylsulfonyl)-4-(piperazin-1-yl)-1H-indole] | 9.30 | –
4 | O=S(=O)(c1cccc(F)c1)n1cc(C(F)F)c2cc(N3CCNCC3)ccc21 [Example 17, 3-(difluoromethyl)-1-((3-fluorophenyl)sulfonyl)-5-(piperazin-1-yl)-1H-indole] | 7.89 | –
5 | CCN1CCN(c2cccc3c2c(C(F)F)cn3S(=O)(=O)c2cccc(F)c2)CC1 [Example 43, 3-(difluoromethyl)-4-(4-ethylpiperazin-1-yl)-1-((3-fluorophenyl)sulfonyl)-1H-indole] | 8.64 | –
6 | O=S(=O)(c1ccc(Br)cc1)n1cc(C(F)F)c2cc(N3CCNCC3)ccc21 [Example 21, 1-((4-bromophenyl)sulfonyl)-3-(difluoromethyl)-5-(piperazin-1-yl)-1H-indole] | 7.36 | –
7 | O=S(=O)(c1ccccc1Cl)n1cc(C(F)F)c2cc(N3CCNCC3)ccc21 [Example 13, 1-((2-chlorophenyl)sulfonyl)-3-(difluoromethyl)-5-(piperazin-1-yl)-1H-indole] | 7.89 | –
8 | O=S(=O)(c1ccccc1C(F)(F)F)n1cc(C(F)F)c2c(N3CCNCC3)cc(Cl)cc21 [Example 23, 6-chloro-3-(difluoromethyl)-4-(piperazin-1-yl)-1-((2-(trifluoromethyl)phenyl)sulfonyl)-1H-indole] | 8.03 | –
9 | O=S(=O)(c1ccccc1Br)n1cc(C(F)F)c2c(N3CCNCC3)cc(Cl)cc21 [Example 26, 1-((2-bromophenyl)sulfonyl)-6-chloro-3-(difluoromethyl)-4-(piperazin-1-yl)-1H-indole] | 8.96 | –
10 | O=S(=O)(c1cccc(Br)c1)n1cc(C(F)F)c2c(N3CCNCC3)cc(Cl)cc21 [Example 29, 1-((3-bromophenyl)sulfonyl)-6-chloro-3-(difluoromethyl)-4-(piperazin-1-yl)-1H-indole] | 8.89 | –
11 | COc1ccc(S(=O)(=O)n2cc(C(F)F)c3c(N4CCNCC4)cccc32)cc1 [Example 8, 3-(difluoromethyl)-1-((4-methoxyphenyl)sulfonyl)-4-(piperazin-1-yl)-1H-indole] | 7.92 | –
12 | O=S(=O)(c1cccc(Cl)c1)n1cc(C(F)F)c2c(N3CCNCC3)cc(Cl)cc21 [Example 28, 6-chloro-1-((3-chlorophenyl)sulfonyl)-3-(difluoromethyl)-4-(piperazin-1-yl)-1H-indole] | 8.85 | –
13 | O=S(=O)(c1cccc(F)c1)n1cc(C(F)F)c2c(NC3CCNCC3)cccc21 [Example 52, 3-(difluoromethyl)-1-((3-fluorophenyl)sulfonyl)-N-(piperidin-4-yl)-1H-indol-4-amine] | 7.74 | –
14 | O=S(=O)(c1cccc(Br)c1)n1cc(C(F)F)c2cc(N3CCNCC3)ccc21 [Example 19, 1-((3-bromophenyl)sulfonyl)-3-(difluoromethyl)-5-(piperazin-1-yl)-1H-indole] | 7.89 | –
15 | O=S(=O)(c1ccccc1)n1cc(C(F)F)c2c(NC3CCNCC3)cccc21 [Example 55, 3-(difluoromethyl)-1-(phenylsulfonyl)-N-(piperidin-4-yl)-1H-indol-4-amine] | 7.19 | –
16 | O=S(=O)(c1ccccc1Br)n1cc(C(F)F)c2c(N3CCNCC3)cccc21 [Example 4, 1-((2-bromophenyl)sulfonyl)-3-(difluoromethyl)-4-(piperazin-1-yl)-1H-indole] | 8.96 | half-life at 1 μM [1]: 30.4 min; CLint scaled at 1 μM [1]: 81.8 mL/min/kg; half-life at 1 μM ([2]; liver microsomes, human liver microsome 0.5 mg/mL, 1 μM compound, 37° C., pH 7.4): 157 min; CLint scaled at 1 μM ([2]; liver microsomes, human liver microsome 0.5 mg/mL, 1 μM compound, 37° C., pH 7.4, read-out: Intrinsic clearance): 11.1 mL/min/kg
17 | CC(C)N1CCN(c2cccc3c2c(C(F)F)cn3S(=O)(=O)c2cccc(F)c2)CC1 [Example 44, 3-(difluoromethyl)-1-((3-fluorophenyl)sulfonyl)-4-(4-isopropylpiperazin-1-yl)-1H-indole] | 7.57 | –

Row | SMILES | pKi (human 5-HT6 receptor) | further results
18 | O=S(=O)(c1ccccc1)n1cc(C(F)F)c2cc(N3CCNCC3)ccc21 [Example 11, 3-(difluoromethyl)-1-(phenylsulfonyl)-5-(piperazin-1-yl)-1H-indole] | 7.96 | –
19 | CN1CCN(c2cccc3c2c(C(F)F)cn3S(=O)(=O)c2cccc(F)c2)CC1 [Example 42, 3-(difluoromethyl)-1-((3-fluorophenyl)sulfonyl)-4-(4-methylpiperazin-1-yl)-1H-indole] | 9.15 | –
20 | O=S(=O)(c1cccc(Cl)c1)n1cc(C(F)F)c2cc(N3CCNCC3)ccc21 [Example 18, 1-((3-chlorophenyl)sulfonyl)-3-(difluoromethyl)-5-(piperazin-1-yl)-1H-indole] | 7.82 | –
21 | Cc1ccc(S(=O)(=O)n2cc(C(F)F)c3cc(N4CCNCC4)ccc32)cc1 [Example 15, 3-(difluoromethyl)-5-(piperazin-1-yl)-1-tosyl-1H-indole] | 7.77 | –
22 | O=S(=O)(c1cccc(Br)c1)n1cc(C(F)F)c2c(NC3CCNCC3)cccc21 [Example 54, 1-((3-bromophenyl)sulfonyl)-3-(difluoromethyl)-N-(piperidin-4-yl)-1H-indol 4-amine] | 7.96 | –
23 | O=S(=O)(c1ccccc1Cl)n1cc(C(F)F)c2c(N3CCNCC3)cc(Cl)cc21 [Example 25, 6-chloro-1-((2-chlorophenyl)sulfonyl)-3-(difluoromethyl)-4-(piperazin-1-yl)-1H-indole] | 9.17 | –
24 | O=S(=O)(c1cccc(Cl)c1)n1cc(C(F)F)c2c(N3CCNCC3)cccc21 [Example 6, 1-((3-chlorophenyl)sulfonyl)-3-(difluoromethyl)-4-(piperazin-1-yl)-1H-indole] | 9.17 | half-life at 1 μM [1]: 35.5 min; CLint scaled at 1 μM [1]: 70 mL/min/kg; degradation in human liver microsomes in vitro ([2]; in 60 minutes): almost had no degradation
25 | O=S(=O)(c1ccc(Cl)cc1)n1cc(C(F)F)c2cc(N3CCNCC3)ccc21 [Example 20, 1-((4-chlorophenyl)sulfonyl)-3-(difluoromethyl)-5-(piperazin-1-yl)-1H-indole] | 7.36 | –
26 | COc1ccc(S(=O)(=O)n2cc(C(F)F)c3cc(N4CCNCC4)ccc32)cc1 [Example 16, 3-(difluoromethyl)-1-((4-methoxyphenyl)sulfonyl)-5-(piperazin-1-yl)-1H-indole] | 7.17 | –
27 | O=S(=O)(c1ccccc1)n1cc(C(F)F)c2c(N3CCNCC3)cccc21 [Example 1, 3-(difluoromethyl)-1-(phenylsulfonyl)-4-(piperazin-1-yl)-1H-indole] | 8.80 | –
28 | O=S(=O)(c1ccccc1F)n1cc(C(F)F)c2cc(N3CCNCC3)ccc21 [Example 12, 3-(difluoromethyl)-1-((2-fluorophenyl)sulfonyl)-5-(piperazin-1-yl)-1H-indole] | 7.52 | –
29 | O=S(=O)(c1cccc(F)c1)n1cc(C(F)F)c2c(N3CCNCC3)cc(Cl)cc21 [Example 27, 6-chloro-3-(difluoromethyl)-1-((3-fluorophenyl)sulfonyl)-4-(piperazin-1-yl)-1H-indole] | 8.72 | –
30 | O=S(=O)(c1ccccc1Br)n1cc(C(F)F)c2cc(N3CCNCC3)ccc21 [Example 14, 1-((2-bromophenyl)sulfonyl)-3-(difluoromethyl)-5-(piperazin-1-yl)-1H-indole] | 7.70 | –
31 | Cc1ccc(S(=O)(=O)n2cc(C(F)F)c3c(N4CCNCC4)cccc32)cc1 [Example 7, 3-(difluoromethyl)-4-(piperazin-1-yl)-1-tosyl-1H-indole] | 8.19 | –
32 | O=S(=O)(c1cccc(F)c1)n1cc(C(F)F)c2c(N3CCNCC3)cc(Br)cc21 [Example 35, 6-bromo-3-(difluoromethyl)-1-((3-fluorophenyl)sulfonyl)-4-(piperazin-1-yl)-1H-indole] | 8.72 | –
33 | O=S(=O)(c1cccc(Br)c1)n1cc(C(F)F)c2c(N3CCNCC3)cc(Br)cc21 [Example 37, 6-bromo-1-((3-bromophenyl)sulfonyl)-3-(difluoromethyl)-4-(piperazin-1-yl)-1H-indole] | 8.82 | –
